Reference: US20030216398A1, “Soluble beta amyloid precursor protein secretion promoters” (priority 2002, published 2003)

Columns and labels:
PC12h cells = experiment: Prevention of glutamate-induced cell death (apoptosis) in PC12h cells, surviving cells by LDH activity; type: cell-based, rat; conditions: 1 mM glutamate, 72 hours, mean of 3 wells
Experimental: Substrain PC12h cells of rat-derived pheochromocytoma PC12 h cells were handed out by Professor Hiroshi Hatanaka of Osaka University. Dulbecco's modified Eagle's medium (DMEM) was purchased from Nissui Seiyaku K.K., HEPES (N-2-hydroxyethylpiperazine-N′-2-ethanesulfonic acid) buffer (pH 7.4), horse serum (HS) and a penicillin (5000 U/ml)/streptomycin (5 mg/ml) mixture from Gibco, fetal calf serum (FCS) from BioWhittaker, Inc., transferrin, insulin and progesterone from Sigma, Inc. A flask for incubation and a collagen-coated 96-well multi-well plate used were manufactured by Falcon Co., Ltd. and Iwaki Glass Co., Ltd., respectively. LDH cytotoxic test Wako was purchased from Wako Pure Chemical Industries, Ltd. Other reagents used were special grade chemicals commercially available.
PC12h cells were inoculated on the 96-well plate in 2×10^4 cells/cm^2. On the following day, the medium was exchanged with HEPES/DME medium containing […] and 20 nM progesterone. The cells survived 72 hours after were counted. The cell number was determined by solubilizing the cells survived in PBS containing Tween 20 after removal of the medium and assaying in terms of the LDH activity.
In PC12h cells, glutamate in the medium hampers uptake of cystine, or a material to make glutathione, into cells. Thus, when 1 mM or more glutamates are added to a medium and incubation is continued for 3 days or longer, it is known that PC12h cells become extinct due to apoptosis accompanied by a reduced level of glutathione in the cells.

[1] = test system: sAPP Secretion in Rat-Derived Pheochromocytoma PC12h Cells; experiment: sAPP secretion promoting activity in PC12h cells (Western blotting of culture supernatant); type: cell-based; conditions: 3 hours after addition
Experimental: Substrain PC12 h cells of rat-derived pheochromocytoma PC12 h cells (Brain Res., 222 (191), p. 225-233) were handed out by Professor Hiroshi Hatanaka of Osaka University. Dulbecco's modified Eagle's medium (DMEM) was purchased from Nissui Seiyaku K.K., HEPES (N-2-hydroxyethylpiperazine-N′-2-ethanesulfonic acid) buffer (pH 7.4), horse serum (HS) and a penicillin (5000 U/ml)/streptomycin (5 mg/ml) mixture from Gibco, and fetal calf serum (FCS) from BioWhittaker, Inc. A flask for incubation and a 6-well multi-well plate coated with collagen manufactured by Falcon Co., Ltd. and Iwaki Glass Co., Ltd., respectively, were used. Anti-βAPP 22C11 antibody was purchased from Roche Diagnostics, Inc. Other reagents used were special grade chemicals commercially available.
PC12h cells were grown in DMEM medium supplemented with 10% FCS/5% HS/penicillin-streptomycin, the cells were taken out by pipetting. The cells were inoculated on the collagen-coated 6-well plate to become 50-70% confluent, which was allowed to stand for a day. On the following day, the well was rinsed twice with 1 ml of […] HEPES/DMEM. […]
The culture supernatant was concentrated by ultrafiltration using Microcon 10 (Amicon, Inc.). […] ECL Plus (Amersham, Inc.) was used for detection, followed by digitalization in Fluor-S Max (Bio-Rad Laboratories) and quantification using NIH-image.

Row | Compound | Surviving Rate (%) (PC12h cells; 0.1 μM compound) | Surviving Rate (%) (PC12h cells; 0.3 μM compound) | Surviving Rate (%) (PC12h cells; 1.0 μM compound) | Surviving Rate (%) (PC12h cells; 3.0 μM compound) | Surviving Rate (%) (PC12h cells; 10.0 μM compound) | sAPP secretion level (relative value to the control group, when the control group is made 100) ([1]; 3 μM of each compound, mean of 3 wells, anti-βAPP 22C11 Western blotting quantified with NIH Image) | sAPP level increase as compared to the control group ([1]; 3 μM, mean relative value in 3 wells (FIG. 2)) [times] | melting point [°C]
1 | COc1ccc(C(=O)N2c3ccccc3[C@H](Nc3ccccc3)C[C@@H]2C)cc1OC (relative stereo) [Compound 1-3, cis-1-(3,4-dimethoxybenzoyl)-2-methyl-N-phenyl-1,2,3,4-tetrahydro-4-quinolinamine] | 4.89 | 7.44 | 49.17 | 77.51 | 63.24 | 325.14 | 3.3 | –
2 | CCC1CC(N(C)c2ccccc2)c2ccccc2N1C(=O)c1ccc(OC)c(OC)c1 (centres unmarked) [Example 54, 1-(3,4-Dimethoxybenzoyl)-2-ethyl-N-methyl-N-phenyl-1,2,3,4-tetrahydro-4-quinolinamine] | – | – | – | – | – | – | – | 146 to 148
